Drawing on a melting point compilation (Tetko et al.; mined from patent text by program, amines drawn as free bases though some values may be those of a salt), this text covers melting point for 91 compounds.

With `C#CCc1c(F)c(F)c(CO)c(F)c1F`, the melting point fell in the range of 51 to 52 °C.

For `c1ccc(CCN2CCN(c3n[nH]c4c3Cc3ccccc3-4)CC2)cc1`, the melting point fell in the range of 212 to 214 °C. The value for `CCC(CC)c1ccc(Cl)c2nc3n(c12)CCCCN3c1cnc(N(C)C)cc1C` was 156 to 157 °C; that for `CC(C)(C)OC(=O)NC(CF)C(F)CN1C(=O)c2ccccc2C1=O` (stereo unspecified) was 152 to 153 °C; that for `COc1c(NC(=O)c2ccccc2)cccc1C(=O)NC1C(Cl)=CC(C(F)(c2ccc(Cl)cc2)C(F)(F)F)=CC1(Cl)OC` (stereo unspecified) was 163 to 166 °C. `CC(C(=O)O)c1ccc2nc(-c3ccc(Cl)cc3)oc2c1` (stereo unspecified) came in with a melting point of 188 to 191 °C.

The compound `CCCCNC(=O)[C@@H]1Cc2ccccc2CN1` displayed a melting point of 58 to 60 °C. With `CCNC(=O)/C=C/c1cccc(Cl)c1` the figure was 87 to 88 °C; with `CCCCN(CCCC)S(=O)(=O)NC(=O)Nc1c(C(C)C)cccc1C(C)C`, 98 to 101 °C. With `Clc1ccc(-c2nnc(NCCN3CCCCC3)c(Cc3ccccc3)n2)cc1` the figure was 196 °C; with `Nc1nc2cccnc2c2c1nc(CCCO)n2CC1(O)CCOCC1`, 237 to 238 °C. With `CN(C)CCOc1ccc(O)c(C=NCCN=Cc2cc(OCCN(C)C)ccc2O)c1` the figure was 84 to 86 °C; with `O=C1C=CC(O)(c2nc3ccccc3s2)C(Cl)=C1` (stereo unspecified), 140 to 143 °C; with `O=C(NNC(=O)c1occ(-c2ccccc2)c1-c1ccccc1)c1ccc(O)c(F)c1`, 243 to 245 °C. On to `CC(C)(C)OC(=O)Nc1ccc(Cl)nc1`, for which the melting point was 126 to 127 °C. Turning to `C=CC(=O)OCCc1cc(=O)c(OCc2ccccc2)c(C(=O)c2ccc(Cc3ccc(F)cc3)o2)o1`, the melting point was 104 to 106 °C. The value for `CC(C)OC(=O)c1cc(NC(=O)c2ccccc2)c(F)cc1Cl` was 117 to 119 °C; that for `O=C1CCCc2cc(Sc3cccc(F)c3)ccc21` was 66.2 to 66.7 °C. The value for `Cc1cc(C(F)(F)F)nc(N(C(N)=O)c2ccccc2C(F)(F)F)n1` was 150 to 153 °C; that for `CC(=O)OC(c1nc2c(C(F)(F)F)cccc2c(O)c1C(=O)Nc1ccccn1)C(C)C` (stereo unspecified) was 230 °C; that for `CSc1ncc(C=O)c(NC2CC2)n1` was 69.5 to 70 °C. With `CSc1[nH]c2cccc3c2c1CC1C3C=C(C)CN1C` (stereo unspecified) the figure was 148 to 150 °C; with `CSc1nc(Cl)cc2nncn12`, 164 to 165 °C; with `COc1c(C)c(N2CCN(c3ccc4c(c3)OCCO4)CC2)c(C)c2c1OC(C)(C)C2`, 167 to 168 °C.

As to `CC(C)CCCC(C)C1CCC2(C#N)C3C=CC4C(C)(C)C(OC(=O)c5ccccc5)CCC4(C)C3CCC12C` (stereo unspecified), the melting point lay within 232 to 233 °C. The compound `O=C(NC(=S)Nc1cccc(Oc2ccccc2)c1)c1cccnc1` yielded a melting point of 144 to 146 °C. With `O=C(O)C(=NOc1ccccc1)c1cccs1` the figure was 86 °C; with `CCOc1ccc(-c2nc(CCC(=O)c3ccccc3C#N)cs2)cc1OCC`, 114 to 115 °C.

For the compound `Cn1nc(C(F)(F)F)cc1Oc1cc(OC(F)F)cnn1`, the melting point is 86 to 88 °C. `OCc1sc(Cl)nc1C(F)(F)F`: the melting point lay within 39 to 45 °C. With `NCC1CCc2[nH]c3ccc(OC(F)(F)F)cc3c2C1` (stereo unspecified) the figure was 148 to 150 °C; with `CC(C)(CO)CNS(=O)(=O)c1ccc(NC=C2C(=O)Nc3ccc4ncsc4c32)cc1`, > 250 °C; with `COc1ccc(C=C(Br)Br)c(OC)c1`, 147 to 148 °C. The value for `COc1cccc(-c2nc3n(n2)CCc2cc(OC)ccc2-3)c1` was 101 to 103 °C; that for `CC(C)c1csc(COC(=O)NC(C(=O)NC(Cc2ccccc2)CC(O)C(Cc2ccccc2)NC(=O)OCc2cncs2)C(C)C)n1` (stereo unspecified) was 62 to 64 °C; that for `Cc1nc(C=Cc2nc3ccc(F)cc3c(=O)n2-c2ccccc2C)cs1` was 211 to 212 °C. Take `CCCn1nc2c(N)nc3ccccc3c2c1CCN(C(N)=O)c1ccc(F)cc1`: the melting point lay in the range of 201 to 202 °C. With `O=S(=O)(Nc1c(F)cccc1F)c1nc2ncc(Cl)cn2n1` the figure was 224 to 226 °C; with `CN1C(=O)N(c2cc(F)c(C#N)cc2F)C(=O)CC1(N)C(F)(F)F` (stereo unspecified), 115 °C; with `CCN(CC)C(=O)OC1c2ccccc2C(=O)N1c1ccc2ccc(Cl)nc2n1` (stereo unspecified), 142 to 144 °C.

On to `Cc1ccc(S(=O)(=O)N(C(=O)OC(C)(C)C)[C@@H]2CCCC[C@H]2N)cc1`, for which the melting point was 137 to 139 °C. With `Cc1cc(=O)c(C(=O)Oc2ccccc2)nn1-c1ccc(Cl)cc1` the figure was 140 to 146 °C; with `Cc1ccc2nc(-c3ccccc3Br)ncc2c1`, 70 to 71 °C. The value for `CCOC(=O)c1nsc(-c2ccccc2)n1` was 32 to 35 °C; that for `COCOc1ccc(C=CC(=O)c2c(OCOC)cc(OCOC)c(CC=C(C)C)c2O)cc1OC` was 62.5 to 63.5 °C; that for `NC(=O)CNc1ncccc1NC(=O)c1cccc(Cl)c1` was 210 to 211 °C. With `Cc1nc(OCC(F)(F)F)c([N+](=O)[O-])c(N2CCC(c3ccc(F)cc3)CC2)n1` the figure was 61 to 64 °C; with `CC(=NOCCO)c1ccc(N(C)S(=O)(=O)c2ccccc2)cc1`, 76 to 77 °C; with `CCOC(=O)NC1Cc2ccccc2C1Nc1ccc(OC)cc1CO` (stereo unspecified), 142 to 144 °C. As for `COc1cc([N+](=O)[O-])c2nccc(C)c2c1OCCCCCc1ccccc1`, the melting point is 47 to 50 °C.

`N#Cc1sc2ccc(Br)cc2c1-c1ccccc1`: the melting point was 145 to 146 °C. The value for `CCOC(=O)c1cnc2c(cnn2CC)c1Cl` was 55 to 60 °C; that for `S=C(NCCCCN(Cc1ccc(Br)cc1)c1ccccn1)NCCCn1ccnc1` was 122 to 124 °C; that for `CC(C)C(=O)Oc1ccc2c(c1Cl)Sc1ccccc1N2C` was 147 °C. Turning to `Cc1cc(C)nc(OC(C)C(=O)O)n1` (stereo unspecified), the melting point stood at 117 °C. Take `FC(F)(F)c1nnc2sc3ccccc3n12`: the melting point is 140 to 141 °C.

For `CC(O[Si](C)(C)C(C)(C)C)C1C(=O)NC1C1CCCC(OCCF)C1O` (stereo unspecified), the melting point was 106 to 110 °C.

With `CC(C)(C)OC(=O)N1CCC(CN2C(=O)C3(COc4cc5c(cc43)C(C)(C)CO5)c3ccccc32)CC1` (stereo unspecified), the melting point is 65 to 75 °C.

Regarding `Cc1c(C(=O)O)c(=O)cc(-c2ccccc2)n1C`, the melting point lay within 220 to 225 °C. The value for `NS(=O)(=O)Cc1ccccc1-c1nnc(S)o1` was 224 to 227 °C. `CSc1nc(-c2ccc(F)cc2)nc(-c2ccccn2)n1`: the melting point is 158 °C.

The compound `Cc1ccc(C(=O)c2cc(-c3ccncc3)c(N3CCOCC3)s2)cc1` yielded a melting point of 144 to 145 °C.

`CCCCC(CCCC)n1c(=O)sc2c(=O)[nH]c(N)nc21`: the melting point is > 175 °C. The value for `CC(C)(NC(=O)C1=C(C(=O)Nc2cc(OC3CCCC3)c(Cl)cc2F)CCCC1)c1cccc(Cl)c1` was 222 to 226 °C; that for `Nc1cc(F)ccc1C(=O)CCCN1CCN(c2cc3ccccc3cn2)CC1` was 124 to 128 °C. With `Oc1ccc(C#Cc2ccccc2)cc1`, the melting point was in the range of 83 to 84 °C. With `Cc1c(NC(=O)c2ccc(-c3cc4ccccc4o3)cc2)ccc2cc(CN3CCCC3)cnc12` the figure was 217 to 218 °C. Consider `O=C(Cc1ccccc1)N=C1SCCN1Cc1ccc(Cl)nc1`, for which the melting point fell in the range of 157 to 158 °C. With `NC(=O)CNC(=O)c1ccc(F)c(-c2ccc(F)c3cc(Cc4cc(F)cc(Cl)c4)sc23)c1` the figure was 178 to 179 °C; with `COc1ccccc1N1CCN(CCNC(=O)CCN2CC=C(c3c[nH]c4cc(F)ccc34)CC2)CC1`, 175 to 177 °C; with `O=C(c1cccs1)C(O)c1ccc(Cl)c(Cl)c1` (stereo unspecified), 108 to 109 °C. With `O=Cc1cc2c3c(ccc4c3c1CCC4)CCC2` the figure was 102 to 105 °C. `Cc1ncn(C)c1-c1nc(C2CC2)no1` returned a melting point of 88 °C. With `Cc1ccc(Cl)cc1C(=O)CO` the figure was 55 to 57 °C. With `CCOC(=O)c1cc2c(cn1)[nH]c1c(Br)cc([N+](=O)[O-])cc12` the figure was 291 to 292 °C. Consider `O=C1CCC(N2Cc3c(CNC(=O)NCc4ccccc4)cccc3C2=O)C(=O)N1` (stereo unspecified), for which the melting point lay within 304 to 306 °C.

On to `Cc1cccc(NCC2=NCCN2C(=O)Nc2ccccc2)c1C`, for which the melting point worked out at 137 °C. `COc1ccc2c(OC(C)C)c(C(N)=O)sc2c1`: the melting point was in the range of 164 to 166 °C. With `COc1ccc2c(c1)c1c(n2Cc2ccccc2)CCCC1C(N)=O` (stereo unspecified) the figure was 154 to 156 °C; with `C#CCOc1cnc(C2=NC(C)(C(C)C)C(=O)N2)c(C(=O)OC)c1` (stereo unspecified), 83 to 84 °C.

As to `CCc1cc(NCc2ccc(-c3ccccc3C#N)cc2)n2ccnc2n1`, the melting point is 99 to 100 °C. Compound `CN(C(=O)Nc1ccc(Cl)cc1)c1nnc(Br)s1` displayed a melting point of 250 °C. The value for `COC(=O)C1CCN(c2ccc(Cl)c(CBr)c2Cl)C1` (stereo unspecified) was 94 °C; that for `O=c1[nH]c(=O)c2c1c1oc3ccccc3oc1c1[nH]c3cc(O)ccc3c12` was > 340 °C; that for `O=C(O)c1ccc(NCc2ccc(Cl)cc2)cc1` was 206 to 208 °C. With `COc1ncc(CN2C(=O)C3(COc4cc5c(cc43)OCO5)c3ccccc32)s1` (stereo unspecified) the figure was 164 to 166 °C.

`CC(C)(C)C(=O)NC#N` came in with a melting point of 112 to 118 °C. With `CN(CCSc1ccc([N+](=O)[O-])cc1)CCc1ccc([N+](=O)[O-])cc1` the figure was 56 to 57 °C; with `COc1cc(Cn2c(=S)sc3ccccc32)cc(OC)c1O`, 141 to 142 °C.

`CS(=O)(=O)Nc1ccc(C(=O)NCC23CCCN(CCC2)C3)cc1` yielded a melting point of 137 to 139 °C. For the compound `COC(=O)c1ccc(C(=O)Nc2ccc3ccc(Cl)nc3n2)cc1`, the melting point amounted to 275 °C.

Usually melting point stands for the temperature of the solid-liquid transition.
